Measured values published in ChEMBL document CHEMBL5500371, “Arginine and tryptophan-rich dendritic antimicrobial peptides that disrupt membranes for bacterial infection in vivo” (Eur J Med Chem, 2024).
Active and inactive are the calls of the source. The rule behind the calls is not given here. Where a SMILES comes first, the peptide text is derived from it. Side-chain parts run from the residue outwards.

Columns and labels:
[1] = Systemic toxicity in male BALB/c mouse assessed as hepatocyte hemorrhage at 109.31 mg/kg, ip administered as single dose by H and E staining based analysis; assay type: organism-based; details: hepatocytes
[2] = test system: Escherichia coli; assay: Additive antibacterial activity against rifampicin resistant Escherichia coli ATCC 25922 assessed as fractional inhibitory concentration index at 0.25 to 4 times MIC incubated for 20 hrs in presence of rifampicin by checkerboard assay; assay type: functional
[3] = test system: Staphylococcus aureus; assay: Antibacterial activity against Staphylococcus aureus ATCC 25923 assessed as inhibition of bacterial growth upto 200 ug/ml pretreated with trypsin for 6 hrs and measured after 18 hrs by absorbance based method; assay type: functional, organism-based; details: dose <= 200.0 µg/ml, time 24.0 hrs
[4] = test system: Escherichia coli; assay: Antibacterial activity against Escherichia coli ATCC 25922 assessed as inhibition of bacterial growth incubated for 20 hrs in presence of FeCl3 by broth microdilution method (reference value: 16 microM); assay type: functional
[5] = Systemic toxicity in male BALB/c mouse assessed as renal cell necrosis at 109.31 mg/kg, ip administered as single dose by H and E staining based analysis; assay type: organism-based; details: in vivo
[6] = test system: Escherichia coli; assay: Antibacterial activity against Escherichia coli ATCC 25922 assessed as inhibition of bacterial growth incubated for 20 hrs in presence of ZnCl2 by broth microdilution method (reference value: 16 microM); assay type: functional
[7] = test system: Escherichia coli; assay: Bactericidal activity against Escherichia coli ATCC 25922 assessed as elimination of bacteria at 2 times MIC measured after 1 hrs by time kill assay; assay type: functional, organism-based
[8] = test system: Escherichia coli; assay: Synergistic antibacterial activity against Escherichia coli ATCC 25922 assessed as fractional inhibitory concentration index at 0.25 to 4 times MIC incubated for 20 hrs in presence of gentamicin by checkerboard assay; assay type: functional, organism-based
[9] = test system: Escherichia coli; assay: […] activity against Escherichia coli ATCC 25922 infected in male BALB/c pulmonary infection model assessed as reduction in liver bleeding at 10 mg/kg, ip administered at 3 and 12 hrs post infection and measured 24 hrs post infection by H and E staining based analysis; assay type: functional, organism-based; details: time 12-21 hrs
[10] = test system: Escherichia coli; assay: Resistant development in Escherichia coli assessed as increase in MIC at sub-MIC measured after 20 passages; assay type: functional, organism-based
[11] = test system: Cell membrane; assay: Induction of cell membrane damage in Escherichia coli assessed as PI uptake at 2 times MIC measured after 2 hrs by PI dye based flow cytometry analysis (reference value: 16.5%); assay type: cell membranes
[12] = test system: Escherichia coli; assay: […] activity against Escherichia coli ATCC 25922 infected in male BALB/c pulmonary infection model assessed as reduction in lung inflammation at 10 mg/kg, ip administered at 3 and 12 hrs post infection and measured 24 hrs post infection by H and E staining based analysis; assay type: functional, organism-based; details: time 12-21 hrs
[13] = test system: Escherichia coli; assay: Synergistic antibacterial activity against rifampicin resistant Escherichia coli ATCC 25922 assessed as fractional inhibitory concentration index at 0.25 to 4 times MIC incubated for 20 hrs in presence of rifampicin by checkerboard assay; assay type: functional, organism-based
[14] = test system: Escherichia coli; assay: Antibacterial activity against Escherichia coli ATCC 25922 assessed as inhibition of bacterial growth incubated for 20 hrs in presence of MgCl2 by broth microdilution method (reference value: 8 microM); assay type: functional
[15] = test system: Escherichia coli; assay: Antibacterial activity against Escherichia coli ATCC 25922 assessed as inhibition of bacterial growth incubated for 20 hrs in presence of FeCl3 by broth microdilution method (reference value: 8 microM); assay type: functional
[16] = test system: Staphylococcus aureus; assay: Synergistic antibacterial activity against gentamicin resistant Staphylococcus aureus ATCC 25923 assessed as fractional inhibitory concentration index at 0.25 to 4 times MIC incubated for 20 hrs in presence of gentamicin by checkerboard assay; assay type: functional
[17] = test system: Staphylococcus aureus; assay: Antibacterial activity against Staphylococcus aureus ATCC 25923 assessed as inhibition of bacterial growth incubated for 20 hrs in presence of KCl by broth microdilution method (reference value: 8 microM); assay type: functional
[18] = test system: Escherichia coli; assay: Antibacterial activity against Escherichia coli ATCC 25922 assessed as inhibition of bacterial growth incubated for 20 hrs in presence of KCl by broth microdilution method (reference value: 8 microM); assay type: functional
[19] = test system: Staphylococcus aureus; assay: Antibacterial activity against Staphylococcus aureus ATCC 25923 assessed as inhibition of bacterial growth incubated for 20 hrs in presence of NaCl by broth microdilution method (reference value: 8 microM); assay type: functional
[20] = Systemic toxicity in male BALB/c mouse assessed as lung inflammatory cell infiltration at 105.41 mg/kg, ip administered as single dose by H and E staining based analysis; assay type: organism-based; details: in vivo
[21] = test system: Staphylococcus aureus; assay: Antibacterial activity against Staphylococcus aureus ATCC 25923 assessed as inhibition of bacterial growth incubated for 20 hrs in presence of FeCl3 by broth microdilution method (reference value: 8 microM); assay type: functional

Compound: N=C(N)NCCC[C@H](NC(=O)[C@@H](N)CCCNC(=N)N)C(=O)NCCCC[C@H](NC(=O)[C@H](CCCNC(=N)N)NC(=O)[C@@H](N)CCCNC(=N)N)C(=O)N[C@@H](Cc1c[nH]c2ccccc12)C(=O)N[C@@H](Cc1c[nH]c2ccccc12)C(=O)N[C@@H](Cc1c[nH]c2ccccc12)C(=O)N[C@@H](Cc1c[nH]c2ccccc12)C(N)=O (H-RRK([Arg-Arg])WWWW-NH2)
- Activity [1]: Non-Toxic
- fractional inhibitory concentration index (FICI) [2]: 0.563
- Activity [3]: Active
- MIC [4]: 16 µM
- Activity [5]: Non-Toxic
- MIC [6]: 8 µM

Compound: POLYMYXIN B
- Activity [7]: 100%
- fractional inhibitory concentration index (FICI) [8]: 0.313
- Activity [9]: inactive
- Activity [10]: inactive
- Activity [11]: 46.8%
- Activity [12]: inactive
- fractional inhibitory concentration index (FICI) [13]: 0.313

Compound: N=C(N)NCCC[C@H](NC(=O)[C@H](CCCNC(=N)N)NC(=O)[C@H](CCCNC(=N)N)NC(=O)[C@@H](N)CCCNC(=N)N)C(=O)N[C@@H](CCCCN)C(=O)N[C@@H](Cc1c[nH]c2ccccc12)C(=O)N[C@@H](Cc1c[nH]c2ccccc12)C(=O)N[C@@H](Cc1c[nH]c2ccccc12)C(=O)N[C@@H](Cc1c[nH]c2ccccc12)C(N)=O
- MIC [14]: 16 µM
- MIC [15]: 16 µM
- fractional inhibitory concentration index (FICI) [16]: 0.5
- MIC [17]: 8 µM
- MIC [18]: 16 µM
- MIC [19]: 8 µM
- Activity [20]: Non-Toxic
- MIC [21]: 8 µM
